Reference: US8486950B2, “Janus kinase inhibitor compounds and methods” (F. Hoffmann-La Roche AG, priority 2009, dated 2013)

These molecules were tested against T1, TYK2 kinase domain (Homo sapiens, UniProt P29597) (assay: TYK2 inhibition assay (Caliper LabChip, isolated kinase domain)). Conditions: not given.
T1 construct: made in house; host or cells: SF9 insect cells (recombinant baculovirus)
T1 sequence (P29597 873-1187): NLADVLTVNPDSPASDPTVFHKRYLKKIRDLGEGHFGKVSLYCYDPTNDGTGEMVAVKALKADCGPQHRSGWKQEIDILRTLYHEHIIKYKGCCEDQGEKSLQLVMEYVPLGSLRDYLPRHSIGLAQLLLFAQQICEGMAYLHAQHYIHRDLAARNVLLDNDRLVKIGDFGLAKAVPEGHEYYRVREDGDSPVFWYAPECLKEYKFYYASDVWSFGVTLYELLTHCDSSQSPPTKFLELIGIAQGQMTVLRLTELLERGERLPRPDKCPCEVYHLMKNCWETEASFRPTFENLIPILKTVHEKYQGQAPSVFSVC
Format: biochemical
Description: The catalytically active kinase domain of human JAK1, JAK2, JAK3 or TYK2 was purified from extracts of SF9 insect cells infected with a recombinant baculovirus expression vector encoding the human JAK1, JAK2, JAK3 or TYK2 kinase domains (JAK1 amino acid residues N852-D1154 according to the numbering of GenBank sequence accession number P23458, JAK2 amino acid residues D812-G1132 according to the numbering of GenBank sequence accession number NP_004963.1; JAK3 amino acid residues S783-S1124 according to the numbering of GenBank sequence accession number P52333, and TYK2 amino acid residues N873-C1187 according to the numbering of GenBank sequence accession number P29597). The activity of the JAK1, JAK2, JAK3 or TYK2 kinase domains can be measured by a number of direct and indirect methods, including quantification of phosphorylation of peptide substrates derived from the human JAK3 protein (Saltzman et al., Biochem. Biophys. Res. Commun. 246:627-633 (2004)). The activity of the JAK1, JAK2, JAK3 or TYK2 kinase domains was measured in vitro by monitoring phosphorylation of JAK3 derived peptides using the Caliper LabChip technology (see Examples).
The activity of the isolated JAK1, JAK2 or TYK2 kinase domain was measured by monitoring phosphorylation of a peptide derived from JAK3 (SEQ ID NO:1 […] fluorescently labeled on the N-terminus with 5-carboxyfluorescein using the Caliper LabChip technology (Caliper Life Sciences, Hopkinton, Mass.). […] Reactions were incubated at 22° C. in 384-well polypropylene microtiter plates for 30 minutes and then stopped by addition of 25 uL of an EDTA containing solution (100 mM Hepes pH 7.2, 0.015% Brij-35, 150 mM EDTA), resulting in a final EDTA concentration of 50 mM. After termination of the kinase reaction, the proportion of phosphorylated product was determined as a fraction of total peptide substrate using the Caliper LabChip 3000 according to the manufacturer's specifications. Ki values were then determined using the Morrison tight binding model. Morrison, J. F., Biochim. Biophys. Acta. 185:269-296 (1969); William, J. W. and Morrison, J. F., Meth. Enzymol., 63:437-467 (1979).

Ki | Compound
~52 nM | O=C(Nc1ccnc(NC(=O)[C@H]2C[C@@H]2c2nnn[nH]2)c1)c1c(Cl)cccc1Cl (relative stereo) [Example 320, N-(2-(trans-2-(1H-tetrazol-5-yl)cyclopropanecarboxamido)pyridin-4-yl)-2,6-dichlorobenzamide]
~2 nM | N#Cc1cc(Cl)c(C(=O)Nc2ccnc(NC(=O)C3CC3)c2)c(Cl)c1 [Example 256, 2,6-dichloro-4-cyano-N-(2-(cyclopropanecarboxamido)pyridin-4-yl)benzamide]

Same assay, conditions: isolated TYK2 kinase domain, 25 uM ATP; values given as 'about'; read-out: Ki values for TYK2 inhibition

Compound | Ki
NC[C@H]1C[C@H]1C(=O)Nc1cc(NC(=O)c2c(F)cccc2Cl)ccn1 (relative stereo) [Example 608, cis-N-(2-(2-(aminomethyl)cyclopropanecarboxamido)pyridin-4-yl)-2-chloro-6-fluorobenzamide] | ~140 nM
O=C(Nc1ccc(NC(=O)C2CC2)nc1)c1c(Cl)cccc1Cl [2,6-dichloro-N-(6-(cyclopropanecarboxamido)-pyridin-3-yl)benzamide, reference compound] | > 3500 nM
Nc1cc(NC(=O)c2c(Cl)cccc2Cl)ccn1 [Example 2, N-(2-aminopyridin-4-yl)-2,6-dichlorobenzamide] | ~850 nM
O=C(Nc1ccncn1)c1c(Cl)cccc1Cl [Example 3, 2,6-dichloro-N-(pyrimidin-4-yl)benzamide] | ~720 nM
O=C(Nc1ccnc(Nc2nccs2)c1)c1c(Cl)cccc1Cl [Example 4, 2,6-dichloro-N-(2-(thiazol-2-ylamino)pyridin-4-yl)benzamide] | ~380 nM
O=C(Nc1ccncc1)c1c(Cl)cc(-c2cc[nH]n2)cc1Cl [Example 11, 2,6-dichloro-4-(1H-pyrazol-3-yl)-N-(pyridin-4-yl)benzamide] | ~650 nM
Cc1ccc(Cl)c(C(=O)Nc2ccncc2)c1F [Example 17, 6-chloro-2-fluoro-3-methyl-N-(pyridin-4-yl)benzamide] | ~360 nM
O=C(Nc1ccncc1)c1c(Cl)cc(CO)cc1Cl [Example 76, 2,6-dichloro-4-(hydroxymethyl)-N-(pyridin-4-yl)benzamide] | ~220 nM
COCCOc1ccc(Nc2cc(NC(=O)c3c(Cl)cccc3Cl)ccn2)cc1C(F)(F)F [Example 115, 2,6-dichloro-N-(2-(4-(2-methoxyethoxy)-3-(trifluoromethyl)phenyl-amino)pyridin-4-yl)benzamide] | ~570 nM
O=C(Nc1ccnc(NC2CC2)n1)c1c(Cl)cccc1Cl [Example 156, 2,6-dichloro-N-(2-(cyclopropylamino)-pyrimidin-4-yl)benzamide] | ~990 nM
Cc1cc(Nc2nccc(NC(=O)c3c(Cl)cc(C#N)cc3Cl)c2[N+](=O)[O-])nc(C)n1 [Example 238, 2,6-dichloro-4-cyano-N-(2-(2,6-dimethylpyrimidin-4-ylamino)-3-nitropyridin-4-yl)benzamide] | ~450 nM
O=C(Nc1ccncc1)c1ccccc1Br [Example 271, 2-bromo-N-(pyridine-4-yl)benzamide] | ~810 nM
O=C(Nc1ccncc1F)c1c(Cl)cccc1Cl [Example 272, 2,6-dichloro-N-(3-fluoropyridin-4-yl)benzamide] | ~190 nM
N#Cc1cc(Cl)c(C(=O)Nc2ccnc(N)c2)c(Cl)c1 [Example 281, N-(2-aminopyridin-4-yl)-2,6-dichloro-4-cyanobenzamide] | ~93 nM
O=C(Nc1cc(NC(=O)c2c(Cl)cccc2Cl)ccn1)Oc1ccccc1 [Example 350, phenyl 4-(2,6-dichlorobenzamido)pyridin-2-ylcarbamate] | ~62 nM
CCc1cc(Nc2cc(NC(=O)c3c(Cl)cccc3Cl)ccn2)nc(N2CCC(F)(F)CC2)n1 [Example 572, 2,6-dichloro-N-(2-(2-(4,4-difluoropiperidin-1-yl)-6-ethylpyrimidin-4-ylamino)pyridin-4-yl)benzamide] | ~80 nM

Next, values leading:

Ki | Compound
~27 nM | CN(C)C(=O)c1cc(Cl)c(C(=O)Nc2ccnc(NC(=O)C3CC3)c2)c(Cl)c1 [Example 260, 2,6-dichloro-N^1-(2-(cyclopropanecarboxamido)pyridin-4-yl)-N^4,N^4-dimethylterephthalamide]
~24 nM | O=C(Nc1ccnc(NC(=O)C2CC2)c1F)c1c(Cl)cccc1Cl (single isomer, unassigned) [Example 263, 2,6-dichloro-N-(3-fluoro-2-cyclopropanecarboxamidopyridin-4-yl)benzamide]
~10 nM | O=C(Nc1cc(NC(=O)C2CC2)ncc1F)c1c(Cl)cccc1Cl (single isomer, unassigned) [Example 264, 2,6-dichloro-N-(5-fluoro-2-cyclopropanecarboxamidopyridin-4-yl)benzamide]
~8 nM | O=C(Nc1ccnc(NC(=O)[C@H]2C[C@H]2F)c1)c1c(Cl)cc(CO)cc1Cl (relative stereo) [Example 315, 2,6-dichloro-N-(2-(cis-2-fluorocyclopropanecarboxamido)pyridin-4-yl)-4-(hydroxymethyl)benzamide]
~5 nM | O=C(Nc1ccnc(NC(=O)C2CC2)c1)c1c(Cl)cc(CO)cc1Cl [Example 178, 2,6-dichloro-N-(2-(cyclopropanecarboxamido)-pyridin-4-yl)-4-(hydroxymethyl)benzamide]
~3.6 nM | Cc1cc(Nc2cc(NC(=O)c3c(Cl)cc(CNCC4CC4)cc3Cl)ccn2)nc(N2CCOCC2)n1 [Example 406, 2,6-dichloro-4-((cyclopropylmethylamino)-methyl)-N-(2-(6-methyl-2-morpholinopyrimidin-4-ylamino)pyridin-4-yl)benzamide]
~3.5 nM | Cc1cc(Nc2cc(NC(=O)c3c(Cl)cc(Cl)cc3Cl)ccn2)nc(N2CCOCC2)n1 [Example 380, 2,4,6-trichloro-N-(2-(6-methyl-2-morpholinopyrimidin-4-ylamino)pyridin-4-yl)benzamide]
~3.3 nM | CNc1nc(Nc2cc(NC(=O)c3c(Cl)cccc3Cl)ccn2)cc(C(C)C)n1 [Example 551, 2,6-dichloro-N-(2-(6-isopropyl-2-(methylamino)pyrimidin-4-ylamino)pyridin-4-yl)benzamide]
~1.8 nM | CCc1cc(Nc2cc(NC(=O)c3c(Cl)cccc3Cl)ccn2)nc(N2CCNCC2)n1 [Example 534, 2,6-dichloro-N-(2-(6-ethyl-2-(piperazin-1-yl)pyrimidin-4-ylamino)pyridin-4-yl)benzamide]
~1.5 nM | Cc1cc(Nc2cc(NC(=O)c3c(Cl)cccc3Cl)ccn2)nc(N)n1 [Example 495, N-(2-(2-amino-6-methylpyrimidin-4-ylamino)pyridin-4-yl)-2,6-dichlorobenzamide]
~0.6 nM | Cc1cc(Nc2cc(NC(=O)c3c(Cl)cc(CO)cc3Cl)ccn2)nc(NCCO)n1 [Example 416, 2,6-dichloro-N-(2-(2-(2-hydroxyethylamino)-6-methylpyrimidin-4-ylamino)pyridin-4-yl)-4-(hydroxymethyl)-benzamide]
~0.6 nM | CCc1cc(Nc2cc(NC(=O)c3c(Cl)cccc3Cl)ccn2)nc(N(CCO)CCO)n1 [Example 579, N-(2-(2-(bis(2-hydroxyethyl)amino)-6-ethylpyrimidin-4-ylamino)pyridin-4-yl)-2,6-dichlorobenzamide]
~0.5 nM | Cc1cc(Nc2cc(NC(=O)c3c(Cl)cc(C#N)cc3Cl)ccn2)nc(N(CCO)CCO)n1 [Example 415, N-(2-(2-(bis(2-hydroxyethyl)amino)-6-methylpyrimidin-4-ylamino)pyridin-4-yl)-2,6-dichloro-4-cyanobenzamide]

Same assay, conditions: measured at 10 μM concentration of compound

inhibition at 10 µM | Compound
~5.7% | O=C(Nc1ccc(NC(=O)C2CC2)nc1)c1c(Cl)cccc1Cl [2,6-dichloro-N-(6-(cyclopropanecarboxamido)-pyridin-3-yl)benzamide, reference compound]
